Results as given in patent publication US9375457B2, “Composition comprising Rhizoma coptidis, Cortex phellodendri and Fructus gardeniae and for treating neurodegenerative diseases” (Hong Kong Baptist University, priority 2013, dated 2016).

Assays:
[1] = system: Aβ1-40 and Aβ1-42 in brain of TgCRND8 mice; assay: Aβ ELISA of serially extracted brain fractions of TgCRND8 mice; type: in vivo; settings: oral, 25 mg/kg per day
Excerpt: (§1) All animal handling experiments were approved by the Hong Kong Baptist University Committee on the Use of Human and Animal Subjects in Teaching and Research (HASC, approval #: 12-13/0030). TgCRND8 mice expressing human APP with Swedish (K670N/M671L) and Indiana (V717F) mutations were used to evaluate the effect of baicalein on Aβ. Heterozygous TgCRND8 mice on a C57BL/6J background were used to breed a colony of experimental animals. The TgCRND8 mouse is an early onset model of AD with visible Aβ deposits in the brains of the animals starting from 3 months of age as described in Chishti M A, Yang D S, Janus C, Phinney A L, Home P, Pearson J, Strome R, Zuker N, Loukides J, French J, Turner S, Lozza G, Grilli M, Kunicki S, Morissette C, Paquette J, Gervais F, Bergeron C, Fraser P E, Carlson G A, George-Hyslop P S, Westaway D. (2001) Early-onset amyloid deposition and cognitive deficits in transgenic mice expressing a double mutant form of amyloid precursor protein 695. J Biol Chem 276: 21562-21570. The animals are housed in a controlled environment under a 12/12 hours light/dark cycle. They are allowed free access to food and water. The oral administration of baicalein (25 mg/kg/d) is commenced at 2 months of age and ended at 5 months before being killed. A single dose (25 mg/kg/d) of baicalein is tested in animal study as no difference in baicalein levels in the brain between doses of 25 and 50 mg/kg/d is found in our pilot study. Control mice orally gavaged with tap water only for the same administration period. At the conclusion of the treatment period, mice were deeply anesthetized by chloral hydrate and perfused with phosphate buffered saline (PBS). The brains were then dissected and processed for Aβ immunostaining
(§2) To detect differences in the level of APP metabolic products among treatment groups, the levels of Aβ, F1-APP, pAPPThr668, CTFs, sAPPα and sAPPβ-sw are measured after a 3-step sequential extraction using Tris buffered saline (TBS) (pH 7.4), 1% Triton X-100/TBS (TBSX) and formic acid (FA) methods as described in Youmans K L, Leung S, Zhang J, Maus E, Baysac K, Bu G, Vassar R, Yu C, LaDu M J. (2011) Amyloid-β42 alters apolipoprotein E solubility in brains of mice with five familial AD mutations. J Neurosci Methods 196: 51-59. All extraction buffers also contained protease and phosphatase inhibitor cocktail (Roche Diagnostics, Basel, Switzerland). Snap frozen tissue is homogenized in 15 volumes (w/v) of TBS homogenization buffer and centrifuged at 100,000×g for 1 h at 4° C. using a Type 70 Ti rotor in an Optima™ L-80XP Ultracentrifuge (Beckman Coulter, Fla., USA). The TBS-soluble fraction is aliquoted, frozen in liquid nitrogen and stored at −80° C. The pellets are resuspended in 15 volumes of TBSX and kept on ice for 30 minutes, followed by a second centrifugation at 100,000×g for 1 hour at 4° C. The TBSX soluble fraction is aliquoted, frozen and stored as for the TBS fraction. The TBSX-insoluble pellet is resuspended in 2 mL of 70% FA and centrifuged at 100,000×g at 4° C. for 1 hour. The FA extracts are neutralized by the addition of 20 volumes of 1 M Tris pH 11, aliquoted and stored at −80° C. Total protein content in TBS- and TBSX-extracts is determined via BCA assay. […]
The levels of intracellular Aβ1-40 and Aβ1-42 are quantified by using a sandwich ELISA as previously described by Durairajan et al., 2011 with minor modification. Equal amounts of cell or brain lysates are used for Aβ quantification by sandwich ELISA. […]

[2] = system: APP processing (sAPPs, F1-APP, pAPPThr668, CTFs) in brain of TgCRND8 mice; assay: Western blot of APP metabolic products in brain fractions of TgCRND8 mice; type: in vivo; settings: oral, 25 mg/kg per day
Excerpt: as §1
as §2, with “assay. Total protein in FA-extracts is determined by Bradford Protein Microassay (Bio-Rad, CA, USA).” for “assay.”

In the case of O=c1cc(-c2ccccc2)oc2cc(O)c(O)c(O)c12 [baicalein], the “effect on TBS soluble Aβ levels in brain” value ([1]; TBS fraction) is reported as “did not significantly affect”, the “increase of Aβ1-40 in TBSX-soluble brain fraction” value ([1]; TBSX fraction) is reported as 35% and the “increase of Aβ1-42 in TBSX-soluble brain fraction” value ([1]; TBSX fraction) is reported as 65%. For the same compound, the “increase of Aβ1-40 in FA brain fraction” value ([1]; formic acid fraction) was 80%, the “increase of Aβ1-42 in FA brain fraction” value ([1]; formic acid fraction) was 32% and the “increase in sAPPα signal intensity in brain” value ([2]; TBS fraction) was 44%. The “increase in sAPPβ-sw signal intensity in brain” value ([2]; TBS fraction) was 35%, the “increase in level of CTFs in brain” value ([2]; TBSX fraction) was 40% and the “increase in level of F1-APP in brain” value ([2]; TBSX fraction) was 30%. The “increase in level of pAPP in brain” value ([2]; TBSX fraction) was 41%.
